DBAASP
Values after ≈ are worked out from the molar mass of the structure shown. One block for each compound: values may come before it.

Tests used:
Experiment in all cases: ≥ marks a high value that may be exact or a test limit, other limits are often not marked, values filed in µg/mL are converted to µM
Bacillus subtilis 168 = tested on: Bacillus subtilis 168
[1] = tested on: Candida albicans F7-39/IDE99
Escherichia coli B = tested on: Escherichia coli B
[2] = tested on: Micrococcus luteus CCM 144
[3] = tested on: Pseudomonas aeruginosa ATCC 27853
Pseudomonas aeruginosa = tested on: Pseudomonas aeruginosa
Staphylococcus aureus 1 = tested on: Staphylococcus aureus 1
[4] = tested on: Staphylococcus aureus ATCC 43300
Staphylococcus aureus = tested on: Staphylococcus aureus
[5] = tested on: Staphylococcus epidermidis
[6] = tested on: Escherichia coli DH5alpha
Staphylococcus xylosus = tested on: Staphylococcus xylosus
Candida albicans = tested on: Candida albicans
[7] = tested on: Enterococcus faecalis ATCC 29212
Escherichia coli UB1005 = tested on: Escherichia coli UB1005
[8] = tested on: Pseudomonas aeruginosa H103
[9] = tested on: Salmonella enterica serovar Typhimurium
[10] = tested on: Staphylococcus aureus ATCC 25923
[11] = tested on: Micrococcus luteus ATCC 9341
[12] = tested on: Candida albicans ATCC 10231
Escherichia coli D31 = tested on: Escherichia coli D31
[13] = tested on: Pseudomonas aeruginosa ATCC 15442
[14] = tested on: Streptococcus mutans ATCC 25175
Acinetobacter baumannii = tested on: Acinetobacter baumannii
[15] = tested on: Escherichia coli ATCC 25922
Escherichia coli = tested on: Escherichia coli
[16] = tested on: Pseudomonas aeruginosa PAO1

Compound: CC[C@H](C)[C@H](NC(=O)CN)C(=O)N[C@@H](Cc1c[nH]c2ccccc12)C(=O)N[C@@H](CO)C(=O)N[C@@H](CO)C(=O)N[C@@H](CC(C)C)C(=O)N[C@@H](CC(C)C)C(=O)N[C@@H](CCCCN)C(=O)N[C@@H](CCCCN)C(=O)N[C@@H](CC(C)C)C(=O)N[C@@H](CCCCN)C(=O)N[C@@H](CCCCN)C(=O)N[C@H](C(=O)N[C@H](C(=O)N[C@@H](C)C(=O)N[C@@H](CCCCN)C(N)=O)[C@@H](C)CC)[C@@H](C)CC [GIWSSLLKKLKKIIAK]
MIC (Bacillus subtilis 168): 7 µM (≈ 12.8 µg/mL)
MIC [1]: 16 µM (≈ 29.2 µg/mL)
MIC (Escherichia coli B): 1.6 µM (≈ 2.92 µg/mL)
MIC [2]: 3 µM (≈ 5.48 µg/mL)
MIC [3]: 6.3 µM (≈ 11.5 µg/mL)
MIC (Pseudomonas aeruginosa): 21 µM (≈ 38.3 µg/mL)
MIC (Staphylococcus aureus 1): 4.6 µM (≈ 8.4 µg/mL)
MIC [4]: 20 µM (≈ 36.5 µg/mL)
MIC (Staphylococcus aureus): 5.3 µM (≈ 9.67 µg/mL)
MIC [5]: 1.5 µM (≈ 2.74 µg/mL)

Compound: CC[C@H](C)[C@H](NC(=O)[C@H](CC(C)C)NC(=O)[C@@H](NC(=O)[C@H](CC(C)C)NC(=O)[C@@H](NC(=O)[C@H](CCCCN)NC(=O)[C@H](CCCN=C(N)N)NC(=O)[C@@H](N)CCCCN)[C@@H](C)CC)[C@@H](C)CC)C(=O)N[C@@H](CCCCN)C(=O)N[C@@H](CCCN=C(N)N)C(=O)N[C@@H](CCCCN)C(=O)O [KRKILILIKRK]
MIC [6]: 8 µM (≈ 11.3 µg/mL)
MIC (Staphylococcus xylosus): 2 µM (≈ 2.82 µg/mL)

Compound: CC[C@H](C)[C@H](NC(=O)CN)C(=O)N[C@@H](CCSC)C(=O)N[C@@H](CO)C(=O)N[C@@H](CO)C(=O)N[C@@H](CC(C)C)C(=O)N[C@@H](CCSC)C(=O)N[C@@H](CCCCN)C(=O)N[C@@H](CCCCN)C(=O)N[C@@H](CC(C)C)C(=O)N[C@@H](C)C(=O)N[C@@H](C)C(=O)N[C@@H](Cc1cnc[nH]1)C(=O)N[C@H](C(=O)N[C@@H](C)C(=O)N[C@@H](CCCCN)C(N)=O)[C@@H](C)CC [GIMSSLMKKLAAHIAK]
MIC (Bacillus subtilis 168): 7 µM (≈ 11.9 µg/mL)
MIC [1]: 18 µM (≈ 30.6 µg/mL)
MIC (Escherichia coli B): 15 µM (≈ 25.5 µg/mL)
MIC [2]: 3 µM (≈ 5.09 µg/mL)
MIC [3]: 20 µM (≈ 34 µg/mL)
MIC (Pseudomonas aeruginosa): 68 µM (≈ 115 µg/mL)
MIC (Staphylococcus aureus 1): ≥ 53 µM
MIC [4]: 63 µM (≈ 107 µg/mL)
MIC (Staphylococcus aureus): 64 µM (≈ 109 µg/mL)
MIC [5]: 13 µM (≈ 22.1 µg/mL)

Compound: CC[C@H](C)[C@H](N)C(=O)N[C@@H](CC(C)C)C(=O)N1CCC[C@H]1C(=O)N[C@@H](Cc1c[nH]c2ccccc12)C(=O)N[C@@H](CCCCN)C(=O)N[C@@H](Cc1c[nH]c2ccccc12)C(=O)N1CCC[C@H]1C(=O)N[C@@H](Cc1c[nH]c2ccccc12)C(=O)N[C@@H](Cc1c[nH]c2ccccc12)C(=O)N1CCC[C@H]1C(=O)N[C@@H](Cc1c[nH]c2ccccc12)C(=O)N[C@@H](C)C(=O)N[C@@H](CCCN=C(N)N)C(N)=O [ILPWKWPWWPWAR]
MIC [11]: 0.4 µM (≈ 0.728 µg/mL)

Compound: CC[C@H](C)[C@H](N)C(=O)N[C@@H](CC(C)C)C(=O)N[C@H](C(=O)N[C@@H](CC(C)C)C(=O)N[C@H](C(=O)N[C@@H](CCCCN)C(=O)N[C@@H](CCCN=C(N)N)C(=O)N[C@@H](CCCCN)C(=O)O)[C@@H](C)CC)[C@@H](C)CC [ILILIKRK]
MIC [6]: ≥ 64 µM
MIC (Staphylococcus xylosus): ≥ 64 µM

Compound: CC[C@H](C)[C@H](NC(=O)[C@H](CC(C)C)NC(=O)[C@@H](NC(=O)[C@H](CC(C)C)NC(=O)[C@@H](NC(=O)[C@@H](N)CCCCN)[C@@H](C)CC)[C@@H](C)CC)C(=O)N[C@@H](CCCCN)C(=O)N[C@@H](CCCN=C(N)N)C(=O)N[C@@H](CCCCN)C(=O)O [KILILIKRK]
MIC [6]: ≥ 32 µM
MIC (Staphylococcus xylosus): 16 µM (≈ 18 µg/mL)

Compound: CC(C)C[C@H](NC(=O)CN)C(=O)N[C@H](C(=O)N[C@H](C(=O)N[C@@H](CC(=O)O)C(=O)N[C@H](C(=O)N[C@@H](CC(C)C)C(=O)N[C@@H](CCCCN)C(=O)NCC(=O)N[C@@H](C)C(=O)N[C@@H](C)C(=O)N[C@@H](CCCCN)C(=O)N[C@H](C(=O)N[C@H](C(=O)N[C@@H](C)C(=O)N[C@@H](C)C(=O)N[C@@H](CCC(=O)O)C(=O)N[C@@H](CC(C)C)C(=O)N[C@@H](CC(C)C)C(=O)N[C@@H](CCCN=C(N)N)C(=O)N[C@@H](CCCCN)C(=O)N[C@@H](C)C(=O)N[C@@H](Cc1cnc[nH]1)C(N)=O)C(C)C)[C@@H](C)O)[C@@H](C)O)[C@@H](C)O)C(C)C [GLVTDTLKGAAKTVAAELLRKAH]
MIC [12]: > 100 µM
MIC (Escherichia coli D31): ≥ 100 µM
MIC [13]: ≥ 100 µM
MIC [10]: 45.3 µM (≈ 107 µg/mL)
MIC [14]: ≥ 100 µM

Compound: CC[C@H](C)[C@H](NC(=O)CN)C(=O)N[C@@H](CCSC)C(=O)N[C@@H](CO)C(=O)N[C@@H](CO)C(=O)N[C@@H](CC(C)C)C(=O)N[C@@H](CCSC)C(=O)N[C@@H](CCCCN)C(=O)N[C@@H](CCCCN)C(=O)N[C@@H](CC(C)C)C(=O)N[C@@H](C)C(=O)N[C@@H](CCCCN)C(=O)N[C@H](C(=O)N[C@H](C(=O)N[C@@H](CCCCN)C(=O)N[C@@H](CCCCN)C(N)=O)[C@@H](C)CC)[C@@H](C)CC [GIMSSLMKKLAKIIKK]
MIC (Bacillus subtilis 168): 7 µM (≈ 12.5 µg/mL)
MIC [1]: 7.6 µM (≈ 13.6 µg/mL)
MIC (Escherichia coli B): 15 µM (≈ 26.8 µg/mL)
MIC [2]: 3 µM (≈ 5.37 µg/mL)
MIC [3]: 5.2 µM (≈ 9.3 µg/mL)
MIC (Pseudomonas aeruginosa): 10 µM (≈ 17.9 µg/mL)
MIC (Staphylococcus aureus 1): 8.6 µM (≈ 15.4 µg/mL)
MIC [4]: 33 µM (≈ 59 µg/mL)
MIC (Staphylococcus aureus): 17 µM (≈ 30.4 µg/mL)
MIC [5]: 2.9 µM (≈ 5.19 µg/mL)

Compound: CC[C@H](C)[C@H](NC(=O)[C@H](CC(C)C)NC(=O)[C@@H](NC(=O)[C@H](CCCN=C(N)N)NC(=O)[C@H](CCCCN)NC(=O)[C@H](CCCN=C(N)N)NC(=O)[C@H](CCCCN)NC(=O)[C@H](CC(C)C)NC(=O)[C@@H](NC(=O)[C@H](CC(C)C)NC(=O)[C@H](CCCCN)NC(=O)[C@@H](N)CCCN=C(N)N)[C@@H](C)CC)[C@@H](C)CC)C(=O)N[C@@H](CCCCN)C(=O)N[C@@H](CCCN=C(N)N)C(=O)O [RKLILKRKRILIKR]
MIC [6]: 16 µM (≈ 29.4 µg/mL)
MIC (Staphylococcus xylosus): 8 µM (≈ 14.7 µg/mL)

The next lines start with the values.

MIC (Candida albicans): 10.8 µM (≈ 13.4 µg/mL)
MIC [7]: 2.7 µM (≈ 3.36 µg/mL)
MIC (Escherichia coli UB1005): 1.3 µM (≈ 1.62 µg/mL)
MIC [8]: 5.4 µM (≈ 6.72 µg/mL)
MIC [9]: 2.7 µM (≈ 3.36 µg/mL)
MIC [10]: 2.7 µM (≈ 3.36 µg/mL)
MIC [5]: 1.3 µM (≈ 1.62 µg/mL)
Compound: CC[C@H](C)[C@H](NC(=O)[C@@H](NC(=O)[C@@H](NC(=O)[C@H](CCCN=C(N)N)NC(=O)[C@@H](NC(=O)[C@H](CCCN=C(N)N)NC(=O)[C@H](Cc1c[nH]c2ccccc12)NC(=O)[C@H](CCCCN)NC(=O)[C@@H](N)Cc1c[nH]c2ccccc12)C(C)C)C(C)C)[C@@H](C)O)C(=O)O [WKWRVRVTI]

MIC (Candida albicans): 4.12 µM (≈ 6 µg/mL)
MIC (Escherichia coli UB1005): 1.1 µM (≈ 1.6 µg/mL)
MIC [8]: 4.12 µM (≈ 6 µg/mL)
MIC [9]: 4.12 µM (≈ 6 µg/mL)
MIC [10]: 8.24 µM (≈ 12 µg/mL)
MIC [5]: 1.1 µM (≈ 1.6 µg/mL)
Compound: CC[C@H](C)[C@H](NC(=O)[C@H](CCCN=C(N)N)NC(=O)[C@H](Cc1ccccc1)NC(=O)[C@H](CCCN=C(N)N)NC(=O)[C@@H](N)C(C)C)C(=O)N[C@@H](CCCN=C(N)N)C(=O)N[C@H](C(=O)N[C@@H](C)C(=O)N[C@H](C(=O)N[C@H](C(=O)N[C@@H](CCCN=C(N)N)C(=O)N[C@@H](C)C(N)=O)[C@@H](C)CC)C(C)C)C(C)C [VRFRIRVAVIRA]

MIC (Candida albicans): 5.4 µM (≈ 8.35 µg/mL)
MIC [7]: 5.4 µM (≈ 8.35 µg/mL)
MIC (Escherichia coli UB1005): 2.7 µM (≈ 4.17 µg/mL)
MIC [8]: 5.4 µM (≈ 8.35 µg/mL)
MIC [9]: 2.7 µM (≈ 4.17 µg/mL)
MIC [10]: 0.7 µM (≈ 1.08 µg/mL)
MIC [5]: 0.7 µM (≈ 1.08 µg/mL)
Compound: NCCCC[C@H](NC(=O)[C@H](Cc1c[nH]c2ccccc12)NC(=O)[C@H](Cc1c[nH]c2ccccc12)NC(=O)[C@H](CCCN=C(N)N)NC(=O)[C@@H](N)CCCN=C(N)N)C(=O)N[C@@H](Cc1c[nH]c2ccccc12)C(=O)N[C@@H](Cc1c[nH]c2ccccc12)C(=O)N[C@@H](Cc1c[nH]c2ccccc12)C(=O)N[C@@H](CCCN=C(N)N)C(=O)O [RRWWKWWWR]

MIC (Acinetobacter baumannii): 21.6 µM (≈ 32 µg/mL)
MIC [15]: 10.8 µM (≈ 16 µg/mL)
MIC (Escherichia coli): 30.5 µM (≈ 45.3 µg/mL)
MIC [16]: 10.8 µM (≈ 16 µg/mL)
MIC (Pseudomonas aeruginosa): 10.8 µM (≈ 16 µg/mL)
MIC [9]: 5.39 µM (≈ 8 µg/mL)
MIC [10]: 10.8 µM (≈ 16 µg/mL)
MIC (Staphylococcus aureus): 7.63 µM (≈ 11.3 µg/mL)
Compound: CC[C@H](C)[C@H](NC(=O)[C@H](CCCN=C(N)N)NC(=O)[C@H](CC(C)C)NC(=O)[C@H](CCC(N)=O)NC(=O)[C@@H](N)C(C)C)C(=O)N[C@@H](CCCN=C(N)N)C(=O)N[C@H](C(=O)N[C@@H](CS)C(=O)N[C@H](C(=O)N[C@H](C(=O)N[C@@H](CCCN=C(N)N)C(=O)N[C@@H](CCCCN)C(=O)O)[C@@H](C)CC)C(C)C)C(C)C [VQLRIRVCVIRK]
